The term Ki denotes a measure of affinity in units of concentration, obtained from inhibition or displacement.

The target in one experiment is Cathepsin S (Homo sapiens, UniProt P25774). In words: Cathepsin S inhibition assay (fluorogenic peptide substrate). In kind it is biochemical. To be noted: Table II, compounds of Formula I; read-out: Ki Cat. S. A digest of the protocol:
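Ki values come from nonlinear fitting of inhibited hydrolysis rates, taking free and total inhibitor concentrations as equal. Rates measured as rising fluorescence at 380/450 nm after reaction start with 50 μM final acetyl-HPVK-aminocarbamoylcoumarin.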

The target of the next experiment is T1, Cathepsin K (Homo sapiens, UniProt P43235).
T1 sequence (P43235 115-329): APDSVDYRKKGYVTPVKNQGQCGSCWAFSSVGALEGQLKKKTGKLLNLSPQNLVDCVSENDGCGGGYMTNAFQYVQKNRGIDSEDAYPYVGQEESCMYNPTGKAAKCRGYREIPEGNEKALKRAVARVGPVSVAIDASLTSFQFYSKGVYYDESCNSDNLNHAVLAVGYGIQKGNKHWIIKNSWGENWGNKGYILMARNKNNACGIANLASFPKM
In words: Cathepsin K inhibition assay (fluorogenic peptide substrate); selectivity ratio vs cathepsin S. In kind it is biochemical. The following applies: ratio of cathepsin K inhibition constant to cathepsin S inhibition constant; Table II. A digest of the protocol: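 Inhibition constants for competitive inhibitors come from apparent values fitted to enzyme progress curves. Substrate, acetyl-Lys-His-Pro-Lys-aminocarbamoylcoumarin (40 μM final), starts the reaction; fluorescence rise read at 380 nm excitation, 450 nm emission. Selectivity ratio: other cathepsin constant over cathepsin S constant.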

Sequence of Cathepsin S (P25774 115-331, species assumed): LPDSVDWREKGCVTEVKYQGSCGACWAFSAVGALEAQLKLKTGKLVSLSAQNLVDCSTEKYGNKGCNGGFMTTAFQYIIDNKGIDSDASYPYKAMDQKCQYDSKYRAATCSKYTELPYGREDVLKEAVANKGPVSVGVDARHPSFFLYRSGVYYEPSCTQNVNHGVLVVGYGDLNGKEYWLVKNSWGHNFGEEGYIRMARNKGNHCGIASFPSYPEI

Turning to `COc1cc(OC)nc(-c2ccc(C(=O)N[C@@H](CC3CCCCC3)C(=O)NCCNc3ccc(OC(F)(F)F)cc3)cc2)n1` [Compound 80, N-(S)-{2-cyclohexyl-1-[2-(4-trifluoromethoxy-phenylamino)-ethylcarbamoyl]-ethyl}-4-(4,6-dimethoxy-pyrimidin-2-yl)-benzamide], the Ki at Cathepsin S was < 1000 nM. Besides, at Cathepsin K, the “Selectivity for Cat. S over Cat. K” value is listed as “+++ (+++, >1000)”.

As to `O=C(N[C@@H](CC1CCCCC1)C(=O)NCCNc1ccc(OC(F)(F)F)cc1)C1CCN(c2ncc(Br)cn2)CC1` [Compound 81, 1-(5-Bromo-pyrimidin-2-yl)-piperidine-4-carboxylic acid (S)-{2-cyclohexyl-1-[2-(4-trifluoromethoxy-phenylamino)-ethylcarbamoyl]-ethyl}-amide], the Ki at Cathepsin S is < 1000 nM. In addition, on Cathepsin K, the “Selectivity for Cat. S over Cat. K” value is “++ (++, >100)”.

Take `COc1ccc(NCCNC(=O)[C@H](Cc2ccccc2)NC(=O)CC2C=CCC2)cc1` (stereo partly drawn) [Compound 82, (S)-2-(2-Cyclopent-2-enyl-acetylamino)-N-[2-(4-methoxy-phenylamino)-ethyl]-3-phenyl-propionamide]: the Ki at Cathepsin S was < 1000 nM. For the same compound, the “Selectivity for Cat. S over Cat. K” value at Cathepsin K is “+ (+, >10)”.

On to `O=C(Cc1c[nH]c2ccccc12)NC(CC1CCCCC1)C(=O)NCCNc1ccc(F)cc1` (centres unmarked) [Compound 83, 3-Cyclohexyl-N-[2-(4-fluoro-phenylamino)-ethyl]-2-(2-1H-indol-3-yl-acetylamino)-propionamide], for which the Ki on Cathepsin S is < 100 nM. At Cathepsin K, the “Selectivity for Cat. S over Cat. K” value was “++ (++, >100)”.

In the case of `CS(=O)(=O)Nc1cccc(C(=O)N[C@@H](CC2CCCCC2)C(=O)NCCNc2ccc(F)cc2)c1` [Compound 84, N-(S)-{2-cyclohexyl-1-[2-(4-fluoro-phenylamino)-ethylcarbamoyl]-ethyl}-3-methanesulfonylamino-benzamide], the inhibitory constant (Ki) at Cathepsin S was < 100 nM. The “Selectivity for Cat. S over Cat. K” value on Cathepsin K is listed as “++ (++, >100)”.

Consider `O=C(N[C@@H](CC1CCCCC1)C(=O)NCCNc1ccc(F)cc1)c1ccc(-c2cccc(C(F)(F)F)c2)o1` [Compound 85, 5-(3-Trifluoromethyl-phenyl)-furan-2-carboxylic acid (S)-{2-cyclohexyl-1-[2-(4-fluoro-phenylamino)-ethylcarbamoyl]-ethyl}-amide], for which the Ki on Cathepsin S was < 100 nM. In addition, the “Selectivity for Cat. S over Cat. K” value at Cathepsin K was “++ (++, >100)”.

Regarding `O=C(Cc1ccc(OC(F)(F)F)cc1)N[C@@H](CC1CCCCC1)C(=O)NCCNc1ccc(F)cc1` [Compound 87, 3-Cyclohexyl-N-(S)-[2-(4-fluoro-phenylamino)-ethyl]-2-[2-(4-trifluoromethoxy-phenyl)-acetylamino]-propionamide], the Ki on Cathepsin S is < 100 nM. On Cathepsin K, the “Selectivity for Cat. S over Cat. K” value was “++ (++, >100)”.

For `COc1ccc(NCCNC(=O)[C@H](Cc2ccccc2)NC(=O)Nc2ccc(Cl)cc2)cc1` [Compound 88, (S)-2-[3-(4-Chloro-phenyl)-ureido]-N-[2-(4-methoxy-phenylamino)-ethyl]-3-phenyl-propionamide], on Cathepsin S, the Ki was < 1000 nM. The “Selectivity for Cat. S over Cat. K” value on Cathepsin K was “+ (+, >10)”.

Regarding `COc1ccc(NCCNC(=O)[C@H](Cc2ccccc2)NC(=O)Nc2ccc(Oc3ccccc3)cc2)cc1` [Compound 89, (S)-N-[2-(4-Methoxy-phenylamino)-ethyl]-2-[3-(4-phenoxy-phenyl)-ureido]-3-phenyl-propionamide], the Ki on Cathepsin S is < 1000 nM. Besides, on Cathepsin K, the “Selectivity for Cat. S over Cat. K” value is “+ (+, >10)”.

On to `COc1ccc(NCCNC(=O)[C@H](Cc2ccccc2)NC(=O)NCCc2ccccc2)cc1` [Compound 90, (S)-N-[2-(4-Methoxy-phenylamino)-ethyl]-2-(3-phenethyl-ureido)-3-phenyl-propionamide], for which, at Cathepsin S, the Ki was < 1000 nM. In addition, at Cathepsin K, the “Selectivity for Cat. S over Cat. K” value was “+ (+, >10)”.

Consider `COc1ccc(NCCNC(=O)[C@H](Cc2ccccc2)NC(=O)NCc2ccc(F)cc2)cc1` [Compound 91, (S)-2-[3-(4-Fluoro-benzyl)-ureido]-N-[2-(4-methoxy-phenylamino)-ethyl]-3-phenyl-propionamide], for which the Ki at Cathepsin S is < 10000 nM. Besides, the “Selectivity for Cat. S over Cat. K” value on Cathepsin K is listed as “+ (+, >10)”.

For the compound `Cc1cc(C)nc(Nc2ccc(C(=O)N[C@@H](CC3CCCCC3)C(=O)NCCNc3ccc(OC(F)(F)F)cc3)cc2)n1` [Compound 92, N-(S)-{2-cyclohexyl-1-[2-(4-trifluoromethoxy-phenylamino)-ethylcarbamoyl]-ethyl}-4-(4,6-dimethyl-pyrimidin-2-ylamino)-benzamide], at Cathepsin S, the Ki was < 100 nM. In addition, on Cathepsin K, the “Selectivity for Cat. S over Cat. K” value was “+ (+, >10)”.

Take `O=C(N[C@@H](CC1CCCCC1)C(=O)NCCNc1ccc(OC(F)(F)F)cc1)C1CCCN(c2ncc(Br)cn2)C1` (stereo partly drawn) [Compound 93, 1-(5-Bromo-pyrimidin-2-yl)-piperidine-3-carboxylic acid (S)-{2-cyclohexyl-1-[2-(4-trifluoromethoxy-phenylamino)-ethylcarbamoyl]-ethyl}-amide]: at Cathepsin S, the Ki was < 1000 nM. Also, the “Selectivity for Cat. S over Cat. K” value at Cathepsin K is on record as “+++ (+++, >1000)”.

For `COc1ccc(NCCNC(=O)[C@H](Cc2ccccc2)NC(=O)Nc2ccc3c(c2)OCO3)cc1` [Compound 94, (S)-2-(3-Benzo[1,3]dioxol-5-yl-ureido)-N-[2-(4-methoxy-phenylamino)-ethyl]-3-phenyl-propionamide], at Cathepsin S, the Ki was < 10000 nM. The “Selectivity for Cat. S over Cat. K” value on Cathepsin K is recorded as “+ (+, >10)”.

For the compound `O=C(Cc1cc(F)ccc1F)N[C@@H](CC1CCCCC1)C(=O)NCCNc1ccc(F)cc1` [Compound 95, 3-Cyclohexyl-2-(S)-[2-(2,5-difluorophenyl)-acetylamino]-N-[2-(4-fluoro-phenylamino)-ethyl]-propionamide], on Cathepsin S, the Ki was < 100 nM. Moreover, the “Selectivity for Cat. S over Cat. K” value on Cathepsin K is reported as “++ (++, >100)”.

Consider `COc1ccc(NCCNC(=O)[C@H](Cc2ccccc2)NC(=O)NCc2cccc(F)c2)cc1` [Compound 96, (S)-2-[3-(3-Fluoro-benzyl)-ureido]-N-[2-(4-methoxy-phenylamino)-ethyl]-3-phenyl-propionamide], for which the inhibition constant Ki on Cathepsin S is < 10000 nM. For the same compound, the “Selectivity for Cat. S over Cat. K” value on Cathepsin K is “+ (+, >10)”.

On to `COc1ccc(NCCNC(=O)[C@H](Cc2ccccc2)NC(=O)Nc2ccccc2C)cc1` [Compound 97, (S)-N-[2-(4-Methoxy-phenylamino)-ethyl]-3-phenyl-2-(3-o-tolyl-ureido)-propionamide], for which the Ki on Cathepsin S is < 1000 nM. Besides, the “Selectivity for Cat. S over Cat. K” value on Cathepsin K is “+ (+, >10)”.

Take `COc1ccc(NCCNC(=O)[C@H](Cc2ccc(Oc3ccc(Cl)c(Cl)c3)cc2)NC(=O)c2cccc(C)c2)cc1` [Compound 98, (S)-N-{2-[4-(3,4-Dichloro-phenoxy)-phenyl]-1-[2-(4-methoxy-phenylamino)-ethylcarbamoyl]-ethyl}-3-methyl-benzamide]: at Cathepsin S, the Ki was < 1000 nM. Further, the “Selectivity for Cat. S over Cat. K” value on Cathepsin K is reported as “++ (++, >100)”.

Regarding `O=C(Cc1ccc(F)c(F)c1)N[C@@H](CC1CCCCC1)C(=O)NCCNc1ccc(F)cc1` [Compound 99, 3-Cyclohexyl-2-(S)-[2-(3,4-difluoro-phenyl)-acetylamino]-N-[2-(4-fluoro-phenylamino)-ethyl]-propionamide], on Cathepsin S, the Ki is < 100 nM. In addition, on Cathepsin K, the “Selectivity for Cat. S over Cat. K” value is given as “++ (++, >100)”.

As to `O=C(Cc1ccc(F)cc1F)N[C@@H](CC1CCCCC1)C(=O)NCCNc1ccc(F)cc1` [Compound 100, 3-Cyclohexyl-2-(S)-[2-(2,4-difluoro-phenyl)-acetylamino]-N-[2-(4-fluoro-phenylamino)-ethyl]-propionamide], at Cathepsin S, the Ki is < 100 nM. Also, at Cathepsin K, the “Selectivity for Cat. S over Cat. K” value was “+++ (+++, >1000)”.

For the compound `COc1ccc(NCCNC(=O)[C@H](Cc2ccccc2)NC(=O)Nc2cccc3ccccc23)cc1` [Compound 101, (S)-N-[2-(4-Methoxy-phenylamino)-ethyl]-2-(3-naphthalen-1-yl-ureido)-3-phenyl-propionamide], the Ki at Cathepsin S was < 1000 nM. Moreover, the “Selectivity for Cat. S over Cat. K” value at Cathepsin K is “+ (+, >10)”.

`COc1ccc(NCCNC(=O)[C@H](Cc2ccccc2)NC(=O)Nc2c(C)cccc2C(C)(C)C)cc1` [Compound 102, (S)-2-[3-(2-tert-Butyl-6-methyl-phenyl)-ureido]-N-[2-(4-methoxy-phenylamino)-ethyl]-3-phenyl-propionamide]: the Ki at Cathepsin S was < 100 nM. Moreover, the “Selectivity for Cat. S over Cat. K” value on Cathepsin K is “++ (++, >100)”.

Consider `COc1ccc(NCCNC(=O)[C@H](Cc2ccccc2)NC(=O)Nc2ccc(C(C)=O)cc2)cc1` [Compound 103, (S)-2-[3-(4-Acetyl-phenyl)-ureido]-N-[2-(4-methoxy-phenylamino)-ethyl]-3-phenyl-propionamide], for which the Ki on Cathepsin S was < 1000 nM. Also, the “Selectivity for Cat. S over Cat. K” value at Cathepsin K is “++ (++, >100)”.

For the compound `COc1ccc(NCCNC(=O)[C@H](Cc2ccccc2)NC(=O)Nc2cccc(OC)c2)cc1` [Compound 104, (S)-N-[2-(4-Methoxy-phenylamino)-ethyl]-2-[3-(3-methoxy-phenyl)-ureido]-3-phenyl-propionamide], the Ki on Cathepsin S is < 10000 nM. The “Selectivity for Cat. S over Cat. K” value on Cathepsin K is on record as “+ (+, >10)”.

Regarding `COc1ccc(NCCNC(=O)[C@H](CC2CCCCC2)NC(=O)c2cccc(C(F)(F)F)c2)cc1` [Compound 106, (S)-N-{2-Cyclohexyl-1-[2-(4-methoxy-phenylamino)-ethylcarbamoyl]-ethyl}-3-trifluoromethyl-benzamide], at Cathepsin S, the Ki is < 100 nM. Moreover, the “Selectivity for Cat. S over Cat. K” value at Cathepsin K was “++ (++, >100)”.

For the origin of these results see patent publication US7109243B2 (IRM LLC, priority 2003, dated 2006).
